Read-outs that look alike come from different tables or passages of the source.
Experiments:
NLRP3 inflammasome = details: macrophages; cited from earlier work
[1] = cited from earlier work
SARS-CoV-2 = experiment: Proof of concept study: time to negative SARS-CoV-2 test in asymptomatic positive patients; type: in vivo, human; details: resveratrol alone by nasal and throat spray and/or inhalation, 6.0 mg per day for 2 weeks; 40 patients
Description: About 100 adult asymptomatic patients, which are positive for SARS-CoV-2, are included in the study after a confirmatory test. […] Subsequently, the patients have a daily SARS-CoV-2 tests until day 7 and then at End of Treatment day 14.

[2] = tested on: K18-hACE2 transgenic mouse; type: in vivo; details: after 7 days
[3] = RSV 30 mg in food (aqueous phospholipid formulation)
[4] = RSV 45 mg in food (aqueous phospholipid formulation)
[5] = RSV 60 mg in food (aqueous phospholipid formulation)

SMILES: Oc1ccc(/C=C/c2cc(O)cc(O)c2)cc1 [RSV, resveratrol]
- NLRP3 inflammasome-derived IL-1β secretion and pyroptosis (NLRP3 inflammasome): inhibits
- solubility in water [1]: almost insoluble
- time to negative SARS-CoV-2 test compared to patients without treatment (SARS-CoV-2): significantly earlier
- Survival Rate [%] [2, 3]: 37.5%
- Survival Rate n/8 [2, 3]: 3 n/8
- Survival Rate [%] [2, 4]: 50%
- Survival Rate n/8 [2, 4]: 4 n/8
- Survival Rate [%] [2, 5]: 62.5%
- Survival Rate n/8 [2, 5]: 5 n/8
